Results from article PMC9296036, “A peptide interfering with the dimerization of oncogenic KITENIN protein and its stability suppresses colorectal tumour progression” (Clinical and Translational Medicine, 2022).

B1: endogenous KITENIN (natural protein, UniProt Q8TAA9 1-524, looked up)
chain: MDTESTYSGYSYYSSHSKKSHRQGERTRERHKSPRNKDGRGSEKSVTIQPPTGEPLLGNDSTRTEEVQDDNWGETTTAITGTSEHSISQEDIARISKDMEDSVGLDCKRYLGLTVASFLGLLVFLTPIAFILLPPILWRDELEPCGTICEGLFISMAFKLLILLIGTWALFFRKRRADMPRVFVFRALLLVLIFLFVVSYWLFYGVRILDSRDRNYQGIVQYAVSLVDALLFIHYLAIVLLELRQLQPMFTLQVVRSTDGESRFYSLGHLSIQRAALVVLENYYKDFTIYNPNLLTASKFRAAKHMAGLKVYNVDGPSNNATGQSRAMIAAAARRRDSSHNELYYEEAEHERRVKKRKARLVVAVEEAFIHIQRLQAEEQQKAPGEVMDPREAAQAIFPSMARALQKYLRITRQQNYHSMESILQHLAFCITNGMTPKAFLERYLSAGPTLQYDKDRWLSTQWRLVSDEAVTNGLRDGIVFVLKCLDFSLVVNVKKIPFIILSEEFIDPKSHKFVLRLQSETSV
notes: KITENIN (Vangl1), endogenous; also called endogenous KITENIN dimer; source: endogenous, HEK293T, HCT116 or Caco2 lysate
B2: V5-tagged KITENIN (natural protein, UniProt Q8TAA9 1-524, looked up)
chain: B1 chain
notes: KITENIN (Vangl1), wild type; also called KITENIN-V5; WT-KITENIN

Assays:
[1] = Detection of KDIP and truncated forms in tumour and liver tissue by LC-MS/MS (MRM) after intravenous injection; assay type: in vivo, mouse; details: tissues collected 20 min after fifth intravenous injection of KDIP 5 mg/kg, below the limit of detection
Experimental: At 20 min after fifth intravenous injection of KDIP, tumour and liver tissues were collected, immediately frozen using liquid nitrogen and ground with a pestle and mortar. One part of resultant powder by weight was homogenized with two parts of lysis buffer containing 8‐M urea, 25‐mM Tris–HCl (pH 8.5) by volume and was placed in Eppendorf tubes. This lysate was sonicated three times for 2 s with 2‐s intervals of rest at 20% amplitude on ice. Insoluble debris was removed by obtaining supernatant after centrifugation at 14 000 g, 4°C for 15 min.
Peptide extraction from serum or tissue lysate was performed by solid‐phase extraction using Oasis HLB Cartridge 1‐cm^3 (30 mg). HLB cartridges were conditioned using ACN (1 ml) and 50% ACN, .5% FA (1 ml), followed by equilibration using .5% FA (2 ml). A volume of 10‐μl serum and 20 μl of tissue lysate were added by .5% FA to be 1 ml and were loaded on equilibrated cartridges. Cartridges were washed with .5% FA (3 ml), and then peptide was eluted by 50% ACN, .5% FA (500 μl). Eluates were vacuum‐dried using Speed‐Vac and were stored at −80°C until use. Dried samples were reconstituted in .5% FA 50 and 5 μl of sample was loaded on column for LC–MS/MS analysis.
Each sample was analysed using an Agilent 1100 Series high‐performance liquid chromatography pump (Agilent Technologies, USA) coupled to an LTQ linear ion trap mass spectrometer (Thermo Finnigan, USA). Separation of peptide was carried out on a homemade C18‐fused silica column (100‐μm internal diameter) with nano‐electrospray ionization interface. […] Peptide was quantified by multiple reaction monitoring (MRM) in positive ion mode, with a spray voltage of 2.3 kV. […] Furthermore, truncated forms ([…], […]) of KDIP that were detected during stability test were also analysed by following transitions: 468.5 → 404.8 (b16 ^+5), 468.5 → 444.85 (b18 ^+5), 468.5 → 505.7 (b16 ^+4), 468.5 → 551.35 (b18 + H2O^+4), 468.5 → 555.7 (b18 ^+4), 528.45 → 448.85 (b14 ^+4), 528.45 → 499.0 (b16 ^+4), 528.45 → 598.15 (b14 ^+3), 528.45 → 659.25 (b16 + H2O^+3) and 528.45 → 664.95 (b16 ^+3). […]

[2] = biological target: the molecule itself; test: SDS-PAGE in the reducing/denaturing condition and Western blot; non-transfected HCT116 and Caco2 cells, regular SDS-PAGE gel, dimer-sized band
[3] = biological target: the molecule itself; test: native gel or EMSA; lysates of Caco2 cells transfected with KITENIN-V5, with or without KDIP, on a native SDS-PAGE gel in the non-reducing/non-denaturing condition; immunoblot with anti-KITENIN antibody

Molecule | detection in regressed tumour tissues or liver by mass spectrometry [1] | further results
ARVRRRGPRRWRLVSDEAV [19‐mer, N-truncated form of KDIP found after incubation with mouse serum] | not detected | –
VRRRGPRRWRLVSDEAV [17‐mer, N-truncated form of KDIP found after incubation with mouse serum] | not detected | –
B1 | – | stoichiometry N [2]: 2
B2 | – | stoichiometry N [3]: 2
